Measurements: PubChem BioAssay (NCI)
“And” between values parts separate entries of the source, which are not always exact repeats. Identical values can stand only once.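 1) Cells in 96-well plates. 2) Compound, 48 h, 5 concentrations. 3) Linear interpolation between surrounding doses. 4) Unreached endpoint = highest concentration. GI50 = concentration required for 50% inhibition of growth. TGI: total growth inhibition.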 *1 amine or outer side, *2 acyl side, *3 side chain or, on linkers, in order; H or OH if unused. Where a SMILES comes first, the peptide text is derived from it. Bridges are numbered along the chain shown (N, C = ends). [ ]: non-standard residue; d: D form. ξ: configuration not given here. X4 = CCC(C)C(N[*:1])C(O)CC(=O)O[C@H](C(=O)C(C)C(=O)[*:2])C(C)C; NMeY = CN[C@@H](Cc1ccc(O)cc1)C(=O)O; X9 = O=C([C@@H]1CC(O)CN1[*:1])[*:2]; ξNMeL = CNC(CC(C)C)C(=O)O; ξT = CC(O)C(N)C(=O)O

What was measured:
Test in all cases: NCI-60 cell line screen, 48 h
RXF 393 renal = tested on: RXF 393 renal
SK-OV-3 ovarian = tested on: SK-OV-3 ovarian
A498 renal = tested on: A498 renal
CAKI-1 renal = tested on: CAKI-1 renal
NCI-H522 lung = tested on: NCI-H522 lung
UO-31 renal = tested on: UO-31 renal
K-562 leukemia = tested on: K-562 leukemia
MDA-MB-435 = tested on: MDA-MB-435

Compound | GI50 (RXF 393 renal) | TGI (RXF 393 renal) | GI50 (SK-OV-3 ovarian) | TGI (SK-OV-3 ovarian) | GI50 (A498 renal) | TGI (A498 renal) | GI50 (CAKI-1 renal) | TGI (CAKI-1 renal) | GI50 (NCI-H522 lung) | TGI (NCI-H522 lung) | GI50 (UO-31 renal) | TGI (UO-31 renal) | GI50 (K-562 leukemia) | TGI (K-562 leukemia) | GI50 (MDA-MB-435) | TGI (MDA-MB-435)
CCOC(=O)c1sc(=S)c2c(C(=O)c3ccccc3)c(C(=O)c3ccccc3)sc2c1C(=O)OCC | 4.48 µM | > 100 µM | 37.4 µM | > 100 µM | 7.96 µM | 52.2 µM | 3.93 µM | > 100 µM | 2.66 µM | 6.89 µM | 5.12 µM | > 100 µM | 3.21 µM | > 100 µM | 3.34 µM | 9.66 µM
CC(C)(C)Cn1c(N)nc2ccc(-c3[nH]c(C(C)(C)C)nc3-c3ccc(F)cc3)nc21 | 4.04 µM | 14.6 µM | 4.36 µM | 18.5 µM | 2.14 µM | 18.2 µM | 3.91 µM | 21.1 µM | 8.5 µM | 23.8 µM | 0.406 µM | 15.1 µM | 3.73 µM | > 72.8 µM | 11.2 µM | 24.1 µM
CCC(C)C1NC(=O)C(NC(=O)C(CC(C)C)N(C)C(=O)[C@@H]2CC(O)CN2)C(C)OC(=O)[C@H](Cc2ccc(OC)cc2)N(C)C(=O)[C@@H]2CCCN2C(=O)[C@H](CC(C)C)NC(=O)C(C)C(=O)[C@H](C(C)C)OC(=O)CC1O (stereo not given in full) (H-[X9][ξNMeL][ξT][X4]LP[NMeY](Me); ester 3-C) |  | 0.0965 µM and 0.0648 µM |  | 0.349 µM and 0.0464 µM | 0.283 µM | 0.628 µM and 2.45 µM | 0.151 µM | 2.65 µM |  | 0.0519 µM and 0.0638 µM | 0.711 µM | 0.954 µM and 7.18 µM |  | 0.114 µM and 0.131 µM |  | 0.0555 µM and 0.131 µM
C=C1C(=O)O[C@H]2[C@H]1CC/C(COC(=O)NCCc1ccc(OC)cc1)=C\CC[C@@]1(C)O[C@@H]21 | 1.55 µM | 3.11 µM | 23 µM | 65.8 µM | 4.52 µM | 18.1 µM | 2.52 µM | 7.53 µM | 1.82 µM | 3.93 µM | 1.76 µM | 3.26 µM | 3.08 µM | 10.3 µM | 3.53 µM | 11.8 µM
COc1cc(N2CCC(N(C)C)CC2)ccc1Nc1ncc(Cl)c(Nc2ccccc2P(C)(C)=O)n1 | 0.442 µM and 0.202 µM | 1.88 µM and 0.874 µM | 0.517 µM and 0.43 µM | 2.01 µM and > 4.16 µM | 0.128 µM and 0.086 µM | 0.476 µM and 0.53 µM | 3.24 µM and 0.326 µM | 10.5 µM and > 4.56 µM | 0.483 µM and 0.115 µM | 6.08 µM and 3.32 µM | 1.82 µM and 0.752 µM | 4.73 µM and 4.59 µM |  | > 100 µM | 1.94 µM and 0.972 µM | > 87.6 µM
O=C(Oc1ccccc1)c1cc(O)c(O)c(O)c1 | 25.6 µM | > 100 µM | 9.22 µM | > 100 µM | 5 µM | 76.1 µM | 15.4 µM | > 100 µM | 4.1 µM | 42.5 µM | 2.93 µM | > 100 µM | 5.78 µM | 70.9 µM | 13.1 µM | > 100 µM
O=[N+]([O-])c1cccc(-c2nc3sccn3c2-c2ccnc(NCCCNS(=O)(=O)c3ccc(F)cc3)n2)c1 | 6.95 µM | > 100 µM | 4.17 µM | > 100 µM | 1.87 µM | > 100 µM | 2.33 µM | > 100 µM | 1.59 µM | 6.02 µM | 1.4 µM | 8.39 µM | 1.62 µM | > 100 µM | 2.55 µM | 7.93 µM
COC(=O)C1=CN(CC2=CC(=O)C(C)=CC2=O)C=C(C(=O)OC)C1c1cccc(OC)c1OC | 11.5 µM | 26.9 µM | 42.8 µM | > 61.5 µM | 20.8 µM | 55.2 µM | 10.9 µM | 29.7 µM | 17 µM | 45.2 µM | 12.9 µM | 25.5 µM | 3.62 µM | 26 µM | 15.8 µM | 39.3 µM
CCCCCCN1C(=O)/C(=c2\sc3n(c2=O)C2C(NN=3)N(CC)C(=O)N2CC)c2ccccc21 (stereo not given) | 1.2 µM | 3.98 µM | 2.67 µM | > 50 µM | 0.706 µM | 2.37 µM | 1.82 µM | > 50 µM | 1.45 µM | > 50 µM | 1.43 µM | > 50 µM | 1.89 µM | > 50 µM | 0.972 µM | 2.16 µM
CCN(CC)CCC(=O)Nc1cccc2c1C(=O)c1c(c(O)c3ccccc3c1O)C2=O | 4.16 µM | 23.8 µM | 85.3 µM | > 100 µM | 17.7 µM | 47.6 µM | > 100 µM | > 100 µM | 80.3 µM | > 100 µM | 1.12 µM | 3.31 µM | 2.67 µM | 13.8 µM | 31 µM | > 100 µM
Nc1nc(-n2cccn2)nc(-n2cccn2)c1Br | > 100 µM | > 100 µM | > 100 µM | > 100 µM | 9.7 µM | 92.6 µM | 93.7 µM | > 100 µM | > 100 µM | > 100 µM | > 100 µM | > 100 µM | > 100 µM | > 100 µM | > 100 µM | > 100 µM
